Data as given in PubChem BioAssay AID2060509 (Molecular Pharmacology Branch, DTP, NCI, 2025).
pIC50: −log10 of the molar value.

System: 485176-168-R4-J1-PDC spheroids with HUVEC/MSC, viability
Assay: Anticancer human tumor 485176-168-R4-J1-PDC patient-derived pancreatic adenocarcinoma cell line growth inhibition [GQUAD]
Details: for pIC50: curve of first compound; for viability, T/C: stronger effect = lower value
Method in brief: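 Multi-cell-type spheroids of tumor cells with HUVEC and mesenchymal stem cells, treated with drug combinations. Concentrations descend in half-log steps from near clinical Cmax, or from 10 microM where Cmax is unknown; viability read-out.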

[1] = second compound 0.0316 µM, first compound 0.0316 µM
[2] = second compound 0.0316 µM, first compound 0.316 µM
[3] = second compound 0.1 µM, first compound 0.0316 µM
[4] = second compound 0.1 µM, first compound 0.316 µM
[5] = second compound 0.316 µM, first compound 0.0316 µM
[6] = second compound 0.316 µM, first compound 0.316 µM
[7] = second compound 1 µM, first compound 0.0316 µM
[8] = second compound 1 µM, first compound 0.316 µM
[9] = second compound 3.16 µM, first compound 0.0316 µM
[10] = second compound 3.16 µM, first compound 0.316 µM
[11] = second compound 10 µM, first compound 0.0316 µM
[12] = second compound 10 µM, first compound 0.316 µM
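Also: spheroids exposed to compounds for seven days before readout.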
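For viability, T/C in this document: percent viability relative to DMSO vehicle control wells as 100%.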

Cn1ncnc1[C@H]1c2n[nH]c(=O)c3cc(F)cc(c23)N[C@@H]1c1ccc(F)cc1 + CN(C)c1ccc(Nc2c3ccc(NC(=O)CCN4CCCC4)cc3nc3cc(NC(=O)CCN4CCCC4)ccc23)cc1
pIC50 (second compound 0.0316 µM): < 6.50
pIC50 (second compound 0.1 µM): < 6.50
pIC50 (second compound 0.316 µM): < 6.50
pIC50 (second compound 1 µM): < 6.50
pIC50 (second compound 3.16 µM): < 6.50
pIC50 (second compound 10 µM): < 6.50
viability, T/C (second compound 0.0316 µM, first compound 0.000999 µM): 92.1%
viability, T/C (second compound 0.0316 µM, first compound 0.00316 µM): 91.2%
viability, T/C (second compound 0.0316 µM, first compound 0.00999 µM): 101%
viability, T/C [1]: 98%
viability, T/C (second compound 0.0316 µM, first compound 0.0999 µM): 98.9%
viability, T/C [2]: 92%
viability, T/C (second compound 0.1 µM, first compound 0.000999 µM): 102%
viability, T/C (second compound 0.1 µM, first compound 0.00316 µM): 124%
viability, T/C (second compound 0.1 µM, first compound 0.00999 µM): 107%
viability, T/C [3]: 93.3%
viability, T/C (second compound 0.1 µM, first compound 0.0999 µM): 110%
viability, T/C [4]: 90.8%
viability, T/C (second compound 0.316 µM, first compound 0.000999 µM): 101%
viability, T/C (second compound 0.316 µM, first compound 0.00316 µM): 97.5%
viability, T/C (second compound 0.316 µM, first compound 0.00999 µM): 95.3%
viability, T/C [5]: 104%
viability, T/C (second compound 0.316 µM, first compound 0.0999 µM): 106%
viability, T/C [6]: 96.5%
viability, T/C (second compound 1 µM, first compound 0.000999 µM): 108%
viability, T/C (second compound 1 µM, first compound 0.00316 µM): 91.7%
viability, T/C (second compound 1 µM, first compound 0.00999 µM): 114%
viability, T/C [7]: 104%
viability, T/C (second compound 1 µM, first compound 0.0999 µM): 113%
viability, T/C [8]: 93.2%
viability, T/C (second compound 3.16 µM, first compound 0.000999 µM): 107%
viability, T/C (second compound 3.16 µM, first compound 0.00316 µM): 80.9%
viability, T/C (second compound 3.16 µM, first compound 0.00999 µM): 98.6%
viability, T/C [9]: 95.7%
viability, T/C (second compound 3.16 µM, first compound 0.0999 µM): 89.3%
viability, T/C [10]: 86.8%
viability, T/C (second compound 10 µM, first compound 0.000999 µM): 90.1%
viability, T/C (second compound 10 µM, first compound 0.00316 µM): 81.4%
viability, T/C (second compound 10 µM, first compound 0.00999 µM): 79.6%
viability, T/C [11]: 97.7%
viability, T/C (second compound 10 µM, first compound 0.0999 µM): 99.5%
viability, T/C [12]: 78.8%

O=C(c1cc(Cc2n[nH]c(=O)c3ccccc23)ccc1F)N1CCN(C(=O)C2CC2)CC1 + CN(C)c1ccc(Nc2c3ccc(NC(=O)CCN4CCCC4)cc3nc3cc(NC(=O)CCN4CCCC4)ccc23)cc1
pIC50 (second compound 0.0316 µM): < 5.00
pIC50 (second compound 0.1 µM): < 5.00
pIC50 (second compound 0.316 µM): < 5.00
pIC50 (second compound 1 µM): < 5.00
pIC50 (second compound 3.16 µM): < 5.00
pIC50 (second compound 10 µM): < 5.00
viability, T/C [1]: 90.6%
viability, T/C (second compound 0.0316 µM, first compound 0.1 µM): 92.6%
viability, T/C [2]: 103%
viability, T/C (second compound 0.0316 µM, first compound 1 µM): 103%
viability, T/C (second compound 0.0316 µM, first compound 3.16 µM): 111%
viability, T/C (second compound 0.0316 µM, first compound 10 µM): 79.3%
viability, T/C [3]: 96.3%
viability, T/C (second compound 0.1 µM, first compound 0.1 µM): 98.7%
viability, T/C [4]: 102%
viability, T/C (second compound 0.1 µM, first compound 1 µM): 91.2%
viability, T/C (second compound 0.1 µM, first compound 3.16 µM): 86.5%
viability, T/C (second compound 0.1 µM, first compound 10 µM): 72.5%
viability, T/C [5]: 84.7%
viability, T/C (second compound 0.316 µM, first compound 0.1 µM): 90.8%
viability, T/C [6]: 91.2%
viability, T/C (second compound 0.316 µM, first compound 1 µM): 95.3%
viability, T/C (second compound 0.316 µM, first compound 3.16 µM): 105%
viability, T/C (second compound 0.316 µM, first compound 10 µM): 81.5%
viability, T/C [7]: 107%
viability, T/C (second compound 1 µM, first compound 0.1 µM): 91.5%
viability, T/C [8]: 90%
viability, T/C (second compound 1 µM, first compound 1 µM): 86.4%
viability, T/C (second compound 1 µM, first compound 3.16 µM): 89.4%
viability, T/C (second compound 1 µM, first compound 10 µM): 73.6%
viability, T/C [9]: 96.9%
viability, T/C (second compound 3.16 µM, first compound 0.1 µM): 93.7%
viability, T/C [10]: 89.9%
viability, T/C (second compound 3.16 µM, first compound 1 µM): 90.8%
viability, T/C (second compound 3.16 µM, first compound 3.16 µM): 95.4%
viability, T/C (second compound 3.16 µM, first compound 10 µM): 68.4%
viability, T/C [11]: 94.7%
viability, T/C (second compound 10 µM, first compound 0.1 µM): 89.9%
viability, T/C [12]: 77.4%
viability, T/C (second compound 10 µM, first compound 1 µM): 85.8%
viability, T/C (second compound 10 µM, first compound 3.16 µM): 84.7%
viability, T/C (second compound 10 µM, first compound 10 µM): 59.7%
